Test results published in patent US10865188B2, “Dibenzo azepine compounds and their use in the treatment of otic diseases and disorders” (Pipeline Therapeutics, Inc., priority 2015, dated 2020).

Test system: HES1
Assay: Human neural stem cell assay, Hes1 gene expression (real-time PCR)
Assay type: cell-based
Settings: human neural stem cells, 7 point CRC, read-out: hNSC HES1 IC50
Description: Neural stem cells (NSC) were derived from embryonic stem cells using a published protocol (Yuan et al., Mar. 2, 2011, PLoS ONE, 6(3):e17540). Cells were sorted and characterized at passage 3 and were expanded. Cells were then frozen at passage 5. Cells were maintained in NSC media (DMEM/F12, N2 (1×), B27(1×) (Invitrogen), and Pen/Strep (1×) (Life Technologies) with 20 ng/ml bFGF (BD Bioscience/Corning)). On day 1, cells were plated in 96 well plates that have been previously coated with poly-ornithin and laminin, 60,000 cells/well in 100 μl of media. On day 2, spent media was removed, and 180 μl of fresh media was added to the cells. Later that same day (day 2), cells were treated with 20 μl of NSC media containing test compounds (7 point CRC). On day 3, spent media was removed and 140 μl of RLT/bME was added to the cells. RNA was extracted using the QiaCube (Qiagen®, Germantown, Md., USA) using the total RNA extraction+DNAse protocol. RNA was then reverse-transcribed to cDNA using iScript (Bio-Rad, Hercules, Calif., USA). cDNA was then used for real-time PCR analysis using iTaq Sybergreen (BioRad). Expression of Atoh1, Hes5, Hes1, Myosin7a genes was evaluated using CFX96 or CFX384 (Bio-Rad). HPRT1 was used as a reference gene. Analysis was done using Microsoft® Excel® and CBIS (ChemInnovation Software, Inc., San Diego, Calif., USA). […]

SMILES: C[C@H](OC(=O)NCC(F)(F)C(F)(F)F)C(=O)N[C@@H]1C(=O)Nc2ccccc2-c2ccccc21 [Compound I, (2,2,3,3,3-pentafluoropropyl)-carbamic acid (S)-1-((S)-6-oxo-6,7-dihydro-5H-dibenzo[b,d]azepin-7-ylcarbamoyl) ethyl ester]
- IC50: 242 nM
